Converted amounts (≈) assume the structure as drawn. Like-named read-outs stand apart in the source and are kept apart here.
Assays:
[1] = tested on: Micrococcus luteus, Mycobacterium phlei and M. chitae; assay: MIC in liquid culture
Micrococcus luteus [2] = assay: Inhibition of oxygen demand/consumption of Micrococcus luteus in liquid culture; type: cell-based; settings: initial studies
[3] = tested on: NADH oxidation of crude cytoplasmic membrane fractions; assay: Inhibition of NADH oxidation of crude cytoplasmic membrane fractions; type: biochemical; settings: initial studies using Micrococcus luteus
[4] = tested on: Mycobacterium tuberculosis test strain H375RV; assay: Growth inhibition of Mycobacterium tuberculosis in liquid culture; type: cell-based; settings: for antibiotic activity against Mycobacterium tuberculosis: clinical isolates and reference strains
Procedure: Using the standard Mycobacterium tuberculosis test strain H375RV, it could be shown that thuggacin A inhibited growth at or below 8 μg/mL in liquid culture.
For tests of the biological activity, preferably aqueous compositions of the thuggacins according to the present invention were used separately in an aqueous composition comprising 10 mM acetic acid for stabilisation.

Corynebacterium fascians = assay: Agar diffusion test; type: cell-based; settings: Rhodococcoides fascians, read-out: Diameter of inhibition zone
Procedure: (§1) In an agar diffusion test using 10 μg of the compound per disc, the following inhibition was found: […]

Micrococcus luteus [5] = assay: Agar diffusion test; type: cell-based; settings: read-out: Diameter of inhibition zone
Procedure: as §1

Mycobacterium phlei = assay: Agar diffusion test; type: cell-based; settings: Mycolicibacterium phlei, read-out: Diameter of inhibition zone
Procedure: as §1

[6] = Stability / rearrangement of thuggacins in protic solvent; type: physicochemical; settings: for stability in aqueous solution: optionally comprising a C1-C2 alcohol
Procedure: Starting from 8 mg/mL thuggacin A, an equilibrium of thuggacin A, thuggacin-B and thuggacin C could be found after approximately 96 hours. In general, the reaction time for reaching the equilibrium can vary over a broad range, e.g. from 1 to 20 days. Re-crystallized thuggacin of high purity is nearly stable, i.e. undergo rearrangement only very slowly. Thuggacin A having a lower purity will undergo rearrangement to thuggacin B and C with increased reaction rates. Similar stabilities have been observed for the rearrangement reaction of thuggacin cmc-A to thuggacin cmc-B and cmc-C.

[7] = tested on: mouse fibroblast cells (L929); assay: Sensitivity of cultivated mouse fibroblast cells

## C/C=C(C)/C=C(\C)CC(C)C(O)C1OC(=O)/C(C)=C/c2csc(n2)C(CO)C(O)CC(O)/C=C/C=C\CC1O (centres unmarked) [thuggacin cmc-B]
[1]
  relative effectiveness in liquid culture MIC experiments: most effective

## C/C=C(C)/C=C(\C)C(O)C(C)C(O)C(O)C1C/C=C\C=C\C(O)CC(O)C(C)c2nc(cs2)/C=C(\CCCCCC)C(=O)O1 (centres unmarked) [thuggacin A]
Micrococcus luteus [2]
  inhibition of oxygen consumption: almost completely
[3]
  oxidation of NADH and of reduced cytochrome c: reduced
[4]
  antibiotic activity against Mycobacterium tuberculosis: antibiotic activity
[4]; liquid culture, strain H375RV
  concentration inhibiting growth: ≤ 8 µg/mL
Corynebacterium fascians; 10 μg of compound per disc, Corynebacterium fascians, figures in parentheses indicate an incomplete inhibition
  zone of inhibition at 10 µg/disc: 30 mm
Micrococcus luteus [5]; 10 μg of compound per disc
  zone of inhibition at 10 µg/disc: 29 mm
Mycobacterium phlei; 10 μg of compound per disc, Mycobacterium phlei
  zone of inhibition at 10 µg/disc: 20 mm
[6]
  stability in aqueous solution: not stable
[6]; starting from 8 mg/mL thuggacin A, aqueous composition optionally including methanol (FIG. 1: methanol)
  time to equilibrium of thuggacin A, thuggacin B and thuggacin C: approximately 96 hours
[1]
  relative effectiveness in liquid culture MIC experiments: most effective
[7]
  IC50: 4 µg/mL (≈ 6.33 µM)

## C/C=C(C)/C=C(\C)C(O)C(C)C(O)C1OC(=O)/C(CCCCCC)=C/c2csc(n2)C(C)C(O)CC(O)/C=C/C=C\CC1O (centres unmarked) [thuggacin B]
[4]
  antibiotic activity against Mycobacterium tuberculosis: antibiotic activity
[6]
  stability in aqueous solution: not stable
[1]
  relative effectiveness in liquid culture MIC experiments: most effective
[7]
  IC50: 8 µg/mL (≈ 12.7 µM)

## C/C=C(C)/C=C(\C)CC(C)C1OC(=O)/C(C)=C/c2csc(n2)C(CO)C(O)CC(O)/C=C/C=C\CC(O)C1O (centres unmarked) [thuggacin cmc-C]
Corynebacterium fascians
  zone of inhibition at 10 µg/disc: 44 mm
Micrococcus luteus [5]
  zone of inhibition at 10 µg/disc: 44 mm
Mycobacterium phlei
  zone of inhibition at 10 µg/disc: 22 mm

## C/C=C(C)/C=C(\C)CC(C)C(O)C(O)C1C/C=C\C=C\C(O)CC(O)C(CO)c2nc(cs2)/C=C(\C)C(=O)O1 (centres unmarked) [thuggacin cmc-A]
Corynebacterium fascians
  zone of inhibition at 10 µg/disc: 47 mm
Micrococcus luteus [5]
  zone of inhibition at 10 µg/disc: 46 mm
Mycobacterium phlei
  zone of inhibition at 10 µg/disc: 24 mm
[1]
  relative effectiveness in liquid culture MIC experiments: most effective

## C/C=C(C)/C=C(\C)C(O)C(C)C1OC(=O)/C(CCCCCC)=C/c2csc(n2)C(C)C(O)CC(O)/C=C/C=C\CC(O)C1O (centres unmarked) [thuggacin C]
[4]
  antibiotic activity against Mycobacterium tuberculosis: antibiotic activity
[1]
  relative effectiveness in liquid culture MIC experiments: less effective against certain bacteria

## C/C=C(C)/C=C(\C)C(O)C(C)C(O)C(O)C1C/C=C(C)\C=C\C(O)CC(O)C(C)c2nc(cs2)/C=C(\CCCCCC)C(=O)O1 (centres unmarked) [13-methyl thuggacin A]
[4]
  antibiotic activity against Mycobacterium tuberculosis: antibiotic activity

Reference: patent US8114864B2, “Macrolide antibiotics and their use for medical purposes” (Helmholtz-Zentrum Fuer Infektionsforschung, priority 2006, dated 2012)
